What is called EC50 is the concentration that produces a half-maximal response. The IC50 is the concentration that inhibits the measured activity by half. A higher IC50 goes with weaker potency.

Experiment [1] deals with TNFα. The experiment can be described thus: cells. The conditions noted are these: LPS-stimulated human monocytes, read-out: EC50 TNF. The format is cell-based, human.
The target in experiment [2] is IRAK4 enzyme (Homo sapiens (Human), UniProt Q9NWZ3). The experiment can be described thus: biochemical. It counts as biochemical. As to conditions: IRAK4 enzyme, 500 μM ATP.
Where [3] appears, read: Homo sapiens, Monocyte, TNFα content.

Like-named read-outs stand apart in the source and are kept apart here. Bounds are passed on as bounds.

Sequence of IRAK4 enzyme (Q9NWZ3 whole entry): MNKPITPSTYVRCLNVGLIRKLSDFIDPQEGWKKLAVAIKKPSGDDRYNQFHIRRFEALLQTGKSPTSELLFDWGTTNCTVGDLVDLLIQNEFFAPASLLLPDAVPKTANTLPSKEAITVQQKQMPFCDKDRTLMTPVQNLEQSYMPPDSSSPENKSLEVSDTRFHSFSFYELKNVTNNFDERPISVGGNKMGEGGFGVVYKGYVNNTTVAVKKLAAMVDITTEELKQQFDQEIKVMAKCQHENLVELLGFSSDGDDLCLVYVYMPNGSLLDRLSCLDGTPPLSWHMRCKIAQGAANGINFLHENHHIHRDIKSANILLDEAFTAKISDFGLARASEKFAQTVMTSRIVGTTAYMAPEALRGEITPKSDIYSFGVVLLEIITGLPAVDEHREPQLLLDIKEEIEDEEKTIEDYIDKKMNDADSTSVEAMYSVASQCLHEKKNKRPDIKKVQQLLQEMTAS

Take `CC(C)(O)[C@H](F)CNC(=O)c1cnc(-c2ccc3cc(C#N)cnn23)cc1NC1CCC(C)(N2CCOCC2)CC1` (single isomer, unassigned) [Example 690]: the EC50 in experiment [1] (TNFα content) was 0.071 µM. In experiment [2] (TR-FRET (HTRF)), this molecule registered a 50% inhibitory concentration (IC50) of 0.001 µM.
Take `CC(C)(O)[C@H](F)CNC(=O)c1cnc(-c2ccc3cc(C#N)cnn23)cc1NC1CCC(C)(N2CCOCC2)CC1` (single isomer, unassigned) [Example 691]: the half-maximal effective concentration (EC50) in experiment [1] (TNFα content) worked out at 0.345 µM. In addition, in experiment [2] (TR-FRET (HTRF)), the IC50 was 0.005 µM.
As to `COC(=O)NC1CC2(C1)CC(Nc1cc(-c3ccc4cc(C#N)cnn34)ncc1C(=O)NC[C@@H](F)C(C)(C)O)C2` (single isomer, unassigned) [Example 756], the EC50 in experiment [1] (TNFα content) stood at 0.059 µM. In addition, the half-maximal inhibitory concentration (IC50) in experiment [2] (TR-FRET (HTRF)) came to 0.001 µM.
For the molecule `COC(=O)NC1CC2(C1)CC(Nc1cc(-c3ccc4cc(C#N)cnn34)ncc1C(=O)NC[C@@H](F)C(C)(C)O)C2` (single isomer, unassigned) [Example 757], in experiment [1] (TNFα content), the 50% effective concentration (EC50) was determined as 0.012 µM. The molecule also came in with a 50% inhibitory concentration (IC50) in experiment [2] (TR-FRET (HTRF)) of less than 0.001 µM.
In the same order, the values of `COC(=O)NCC1(O)CC(Nc2cc(-c3ccc4cc(C#N)cnn34)ncc2C(=O)NC[C@@H](F)C(C)(C)O)C1` (single isomer, unassigned) [Example 759] are more than 10 µM and 0.003 µM.
In the same order, the values of `COC(=O)NCC1(O)CC(Nc2cc(-c3ccc4cc(C#N)cnn34)ncc2C(=O)NC[C@@H](F)C(C)(C)O)C1` (single isomer, unassigned) [Example 760] are 0.033 µM and less than 0.001 µM.
Take `COC(=O)NCC1(F)CC(Nc2cc(-c3ccc4cc(C#N)cnn34)ncc2C(=O)NC[C@@H](F)C(C)(C)O)C1` (single isomer, unassigned) [Example 764]: the concentration giving a half-maximal response (EC50) in experiment [1] (TNFα content) turned out to be 0.008 µM. The IC50 in experiment [2] (TR-FRET (HTRF)) is less than 0.001 µM.
In the same order, the values of `COC(=O)NCC1(F)CC(Nc2cc(-c3ccc4cc(C#N)cnn34)ncc2C(=O)NC[C@@H](F)C(C)(C)O)C1` (single isomer, unassigned) [Example 765] are 0.323 µM and 0.006 µM.
With `CC(C)(O)[C@H](F)CNC(=O)c1cnc(-c2ccc3cc(C#N)cnn23)cc1Nc1cnn(C2CNCC2(F)F)c1` (single isomer, unassigned) [Example 868], in experiment [1] (TNFα by TR-FRET), the concentration for a half-maximal effect (EC50) stood at 0.053 µM. This molecule returned an IC50 in experiment [2] (TR-FRET) of less than 0.001 µM.
As for `CC(C)(O)[C@H](F)CNC(=O)c1cnc(-c2ccc3cc(C#N)cnn23)cc1Nc1cnn(C2CNCC2(F)F)c1` (single isomer, unassigned) [Example 869], the EC50 in experiment [1] (TNFα by TR-FRET) turned out to be 0.014 µM. The same molecule registered an IC50 in experiment [2] (TR-FRET) of less than 0.001 µM.
In the case of `CC1(Nc2cc(-c3ccc4cc(C#N)cnn34)ncc2C(=O)NC[C@@H](F)C(C)(C)O)COC1` [Example 1, (R)-6-(3-cyanopyrrolo[1,2-b]pyridazin-7-yl)-N-(2-fluoro-3-hydroxy-3-methylbutyl)-4-((3-methyloxetan-3-yl)amino)nicotinamide], the EC50 in experiment [1] (setting [3]) was 0.032 µM. The same molecule came in with a concentration for half-maximal inhibition (IC50) in experiment [2] (TR-FRET) of less than 0.001 µM.
Consider `CC(C)(O)[C@H](F)CNC(=O)c1cnc(-c2ccc3cc(C#N)cnn23)cc1N[C@H]1CCC[C@@H](O)C1` [Example 2, 6-(3-cyanopyrrolo[1,2-b]pyridazin-7-yl)-N-((R)-2-fluoro-3-hydroxy-3-methylbutyl)-4-(((1S,3R)-3-hydroxycyclohexyl)amino)nicotinamide], for which the EC50 in experiment [1] (setting [3]) turned out to be 0.009 µM. In experiment [2] (TR-FRET), this molecule had an IC50 of less than 0.001 µM.
With `CC(C)Nc1cc(-c2ccc3cc(C#N)cnn23)ncc1C(=O)N[C@H]1CC[C@H](C(C)(C)O)CC1` [Example 3, 6-(3-cyanopyrrolo[1,2-b]pyridazin-7-yl)-N-((1r,4r)-4-(2-hydroxypropan-2-yl)cyclohexyl)-4-(isopropylamino)nicotinamide], in experiment [1] (setting [3]), the EC50 turned out to be 0.062 µM. In experiment [2] (TR-FRET), this molecule gave a half-inhibitory concentration (IC50) of less than 0.001 µM.
As to `CC(C)(O)[C@H](F)CNC(=O)c1cnc(-c2ccc3cc(C#N)cnn23)cc1Nc1cccnc1` [Example 4, (R)-6-(3-cyanopyrrolo[1,2-b]pyridazin-7-yl)-N-(2-fluoro-3-hydroxy-3-methylbutyl)-4-(pyridin-3-ylamino)nicotinamide], in experiment [1] (setting [3]), the EC50 was 0.033 µM. The same molecule gave an IC50 in experiment [2] (TR-FRET) of less than 0.001 µM.
As for `CC(C)Nc1cc(-c2ccc3cc(C#N)cnn23)ncc1C(=O)NC1CC2(C1)CC(C(C)(C)O)C2` (stereo not shown) [Example 5, 6-(3-cyanopyrrolo[1,2-b]pyridazin-7-yl)-N-(6-(2-hydroxypropan-2-yl)spiro[3.3]heptan-2-yl)-4-(isopropylamino)nicotinamide], the EC50 in experiment [1] (setting [3]) came out at 0.207 µM. In addition, the IC50 in experiment [2] (TR-FRET) was less than 0.001 µM.
Consider `CC(C)Nc1cc(-c2ccc3cc(C#N)cnn23)ncc1C(=O)NC1CCOCC1` [Example 6, 6-(3-cyanopyrrolo[1,2-b]pyridazin-7-yl)-4-(isopropylamino)-N-(tetrahydro-2H-pyran-4-yl)nicotinamide], for which the concentration giving a half-maximal response (EC50) in experiment [1] (setting [3]) worked out at 0.152 µM. The same molecule showed an IC50 in experiment [2] (TR-FRET) of 0.005 µM.
For `CC(C)Nc1cc(-c2ccc3cc(C#N)cnn23)ncc1C(=O)NC1COC1` [Example 7, 6-(3-cyanopyrrolo[1,2-b]pyridazin-7-yl)-4-(isopropylamino)-N-(oxetan-3-yl)nicotinamide], the half-maximal effective concentration (EC50) in experiment [1] (setting [3]) came out at 0.442 µM. In experiment [2] (TR-FRET), this molecule showed an IC50 of 0.005 µM.
Turning to `CC(C)(O)[C@H](F)CNC(=O)c1cnc(-c2ccc3cc(C#N)cnn23)cc1NC1CNC(=O)C1` (stereo partly drawn) [Example 8, 6-(3-cyanopyrrolo[1,2-b]pyridazin-7-yl)-N-((R)-2-fluoro-3-hydroxy-3-methylbutyl)-4-((5-oxopyrrolidin-3-yl)amino)nicotinamide], the concentration giving a half-maximal response (EC50) in experiment [1] (setting [3]) came to 0.774 µM. The molecule further came in with an IC50 in experiment [2] (TR-FRET) of less than 0.001 µM.
For `CC(C)Nc1cc(-c2ccc3cc(C(N)=O)cnn23)ncc1C(=O)NCC1CCS(=O)(=O)C1` (stereo not shown) [Example 9, 7-(5-(((1,1-dioxidotetrahydrothiophen-3-yl)methyl)carbamoyl)-4-(isopropylamino)pyridin-2-yl)pyrrolo[1,2-b]pyridazine-3-carboxamide], the concentration for a half-maximal effect (EC50) in experiment [1] (setting [3]) was 5.1 µM. This molecule had an IC50 in experiment [2] (TR-FRET) of 0.016 µM.
In the same order, the values of `CC(C)(O)[C@H](F)CNC(=O)c1cnc(-c2ccc3cc(C#N)cnn23)cc1NS(C)(=O)=O` [Example 10, (R)-6-(3-cyanopyrrolo[1,2-b]pyridazin-7-yl)-N-(2-fluoro-3-hydroxy-3-methylbutyl)-4-(methylsulfonamido)nicotinamide] are more than 10 µM and 0.234 µM.
In the same order, the values of `CC(C)(O)[C@H](F)CNC(=O)c1cnc(-c2ccc3cc(C#N)cnn23)cc1N` [Example 11, (R)-4-amino-6-(3-cyanopyrrolo[1,2-b]pyridazin-7-yl)-N-(2-fluoro-3-hydroxy-3-methylbutyl)nicotinamide] are 1.04 µM and 0.007 µM.
Take `CC(C)Nc1cc(-c2ccc3cc(C#N)cnn23)ncc1C(=O)N[C@H]1CC[C@H](N)CC1` [Example 12, N-((1r,4r)-4-aminocyclohexyl)-6-(3-cyanopyrrolo[1,2-b]pyridazin-7-yl)-4-(isopropylamino)nicotinamide]: in experiment [1] (setting [3]), the concentration giving a half-maximal response (EC50) turned out to be 0.097 µM. The molecule further came in with an IC50 in experiment [2] (TR-FRET) of 0.002 µM.
Regarding `CC(=O)N[C@H]1CC[C@H](NC(=O)c2cnc(-c3ccc4cc(C#N)cnn34)cc2NC(C)C)CC1` [Example 13, N-((1r,4r)-4-acetamidocyclohexyl)-6-(3-cyanopyrrolo[1,2-b]pyridazin-7-yl)-4-(isopropylamino)nicotinamide], the 50% effective concentration (EC50) in experiment [1] (setting [3]) turned out to be 0.079 µM. Further, in experiment [2] (TR-FRET), the IC50 is less than 0.001 µM.

(Values after patent US10336762B2 (priority 2017, dated 2019).)
